# Measured values published in PubChem BioAssay (NCI).
#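 In this assay, cells in 96-well plates receive the compound at five concentrations for 48 hours. Endpoints are linearly interpolated between the surrounding concentrations. GI50 = concentration required for 50% inhibition of growth. TGI denotes the concentration required for complete inhibition of growth.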
# Experiments:
# Experiment in all cases: NCI-60 cell line screen, 48 h
# SNB-19 CNS = test system: SNB-19 CNS
# A549 NSCLC = test system: A549 NSCLC
# UACC-257 melanoma = test system: UACC-257 melanoma
# SK-MEL-2 melanoma = test system: SK-MEL-2 melanoma
# U251 CNS = test system: U251 CNS
# MOLT-4 leukemia = test system: MOLT-4 leukemia
# MALME-3M melanoma = test system: MALME-3M melanoma
# BT-549 breast = test system: BT-549 breast
# NCI-H23 lung = test system: NCI-H23 lung
# IGROV1 ovarian = test system: IGROV1 ovarian
# NCI-H226 lung = test system: NCI-H226 lung
# COLO 205 colon = test system: COLO 205 colon
# 786-0 renal = test system: 786-0 renal
# HOP-62 NSCLC = test system: HOP-62 NSCLC
# SK-MEL-28 melanoma = test system: SK-MEL-28 melanoma
# OVCAR-8 ovarian = test system: OVCAR-8 ovarian
# MDA-MB-231 breast = test system: MDA-MB-231 breast
# K-562 leukemia = test system: K-562 leukemia
# SF-268 CNS = test system: SF-268 CNS
# SK-MEL-5 melanoma = test system: SK-MEL-5 melanoma
# LOX IMVI melanoma = test system: LOX IMVI melanoma
# MCF7 breast = test system: MCF7 breast
# RPMI-8226 leukemia = test system: RPMI-8226 leukemia
# M14 melanoma = test system: M14 melanoma
# SR leukemia = test system: SR leukemia
# HCT-116 colon = test system: HCT-116 colon
# HS 578T breast = test system: HS 578T breast
# NCI/ADR-RES ovarian = test system: NCI/ADR-RES ovarian
# CAKI-1 renal = test system: CAKI-1 renal
# HL-60(TB) leukemia = test system: HL-60(TB) leukemia
# UACC-62 melanoma = test system: UACC-62 melanoma
# OVCAR-3 ovarian = test system: OVCAR-3 ovarian
# OVCAR-4 ovarian = test system: OVCAR-4 ovarian
# PC-3 prostate = test system: PC-3 prostate
# MDA-MB-435 = test system: MDA-MB-435
# SF-295 CNS = test system: SF-295 CNS
# SN12C renal = test system: SN12C renal
# NCI-H522 lung = test system: NCI-H522 lung
# SW-620 colon = test system: SW-620 colon
# SF-539 CNS = test system: SF-539 CNS
# SK-OV-3 ovarian = test system: SK-OV-3 ovarian
# SNB-75 CNS = test system: SNB-75 CNS
# OVCAR-5 ovarian = test system: OVCAR-5 ovarian
# HT29 colon = test system: HT29 colon
# T-47D breast = test system: T-47D breast
# NCI-H460 lung = test system: NCI-H460 lung
# CCRF-CEM leukemia = test system: CCRF-CEM leukemia
# RXF 393 renal = test system: RXF 393 renal
# KM12 colon = test system: KM12 colon
# TK-10 renal = test system: TK-10 renal
# A498 renal = test system: A498 renal
# ACHN renal = test system: ACHN renal
# HCC-2998 colon = test system: HCC-2998 colon
# DU-145 prostate = test system: DU-145 prostate
# UO-31 renal = test system: UO-31 renal
# HOP-92 NSCLC = test system: HOP-92 NSCLC
# HCT-15 colon = test system: HCT-15 colon
smiles,measurement,setting,value
CNCCCNCCCCNCCCN1C(=O)c2ccc3c4c(ccc(c24)C1=O)C(=O)N(CCCNCc1ccccc1OC)C3=O,GI50,SNB-19 CNS,3.79 µM
same,TGI,SNB-19 CNS,17.2 µM
same,GI50,A549 NSCLC,3.45 µM
same,TGI,A549 NSCLC,20.2 µM
same,GI50,UACC-257 melanoma,1.25 µM
same,TGI,UACC-257 melanoma,8.07 µM
same,GI50,SK-MEL-2 melanoma,4.46 µM
same,TGI,SK-MEL-2 melanoma,18.8 µM
same,GI50,U251 CNS,3.24 µM
same,TGI,U251 CNS,18 µM
same,GI50,MOLT-4 leukemia,5.21 µM
same,TGI,MOLT-4 leukemia,38.5 µM
same,GI50,MALME-3M melanoma,0.939 µM
same,TGI,MALME-3M melanoma,3.05 µM
same,GI50,BT-549 breast,3.4 µM
same,TGI,BT-549 breast,15.8 µM
same,GI50,NCI-H23 lung,2.99 µM
same,TGI,NCI-H23 lung,19.1 µM
same,GI50,IGROV1 ovarian,3.02 µM
same,TGI,IGROV1 ovarian,19 µM
same,GI50,NCI-H226 lung,2.17 µM
same,TGI,NCI-H226 lung,21.3 µM
same,GI50,COLO 205 colon,1.38 µM
same,TGI,COLO 205 colon,8.16 µM
same,GI50,786-0 renal,3.36 µM
same,TGI,786-0 renal,29.8 µM
same,GI50,HOP-62 NSCLC,2.33 µM
same,TGI,HOP-62 NSCLC,25.6 µM
same,GI50,SK-MEL-28 melanoma,1.4 µM
same,TGI,SK-MEL-28 melanoma,10.1 µM
same,GI50,OVCAR-8 ovarian,2.89 µM
same,TGI,OVCAR-8 ovarian,54.6 µM
same,GI50,MDA-MB-231 breast,4.63 µM
same,TGI,MDA-MB-231 breast,70.2 µM
same,GI50,K-562 leukemia,2.78 µM
same,TGI,K-562 leukemia,34.6 µM
same,GI50,SF-268 CNS,3.51 µM
same,TGI,SF-268 CNS,44.3 µM
same,GI50,SK-MEL-5 melanoma,0.813 µM
same,TGI,SK-MEL-5 melanoma,3 µM
same,GI50,LOX IMVI melanoma,3.03 µM
same,TGI,LOX IMVI melanoma,14 µM
same,GI50,MCF7 breast,2.77 µM
same,TGI,MCF7 breast,13 µM
same,GI50,RPMI-8226 leukemia,3 µM
same,TGI,RPMI-8226 leukemia,22.8 µM
same,GI50,M14 melanoma,2.63 µM
same,TGI,M14 melanoma,13.3 µM
same,GI50,SR leukemia,4.42 µM
same,TGI,SR leukemia,43.9 µM
same,GI50,HCT-116 colon,2.04 µM
same,TGI,HCT-116 colon,21.1 µM
same,GI50,HS 578T breast,2.9 µM
same,TGI,HS 578T breast,22 µM
same,GI50,NCI/ADR-RES ovarian,7.09 µM
same,TGI,NCI/ADR-RES ovarian,> 100 µM
same,GI50,CAKI-1 renal,2.25 µM
same,TGI,CAKI-1 renal,24.4 µM
same,GI50,HL-60(TB) leukemia,3.68 µM
same,TGI,HL-60(TB) leukemia,23.4 µM
same,GI50,UACC-62 melanoma,0.711 µM
same,TGI,UACC-62 melanoma,5.06 µM
same,GI50,OVCAR-3 ovarian,2.93 µM
same,TGI,OVCAR-3 ovarian,11.3 µM
same,GI50,OVCAR-4 ovarian,1.7 µM
same,TGI,OVCAR-4 ovarian,9.19 µM
same,GI50,PC-3 prostate,7.45 µM
same,TGI,PC-3 prostate,44.4 µM
same,GI50,MDA-MB-435,0.795 µM
same,TGI,MDA-MB-435,6.21 µM
same,GI50,SF-295 CNS,1.33 µM
same,TGI,SF-295 CNS,12.8 µM
same,GI50,SN12C renal,2.95 µM
same,TGI,SN12C renal,20.5 µM
same,GI50,NCI-H522 lung,5.62 µM
same,TGI,NCI-H522 lung,27.2 µM
same,GI50,SW-620 colon,2.16 µM
same,TGI,SW-620 colon,15.8 µM
same,GI50,SF-539 CNS,2.04 µM
same,TGI,SF-539 CNS,6.82 µM
same,GI50,SK-OV-3 ovarian,6.19 µM
same,TGI,SK-OV-3 ovarian,61.5 µM
same,GI50,SNB-75 CNS,1.05 µM
same,TGI,SNB-75 CNS,13.3 µM
same,GI50,OVCAR-5 ovarian,5.35 µM
same,TGI,OVCAR-5 ovarian,26.9 µM
same,GI50,HT29 colon,3.36 µM
same,TGI,HT29 colon,16.4 µM
same,GI50,T-47D breast,0.342 µM
same,TGI,T-47D breast,5.97 µM
same,GI50,NCI-H460 lung,2.53 µM
same,TGI,NCI-H460 lung,12.1 µM
same,GI50,CCRF-CEM leukemia,3.77 µM
same,TGI,CCRF-CEM leukemia,39 µM
same,GI50,RXF 393 renal,3.82 µM
same,TGI,RXF 393 renal,19.3 µM
same,GI50,KM12 colon,2.75 µM
same,TGI,KM12 colon,17.4 µM
same,GI50,TK-10 renal,4.08 µM
same,TGI,TK-10 renal,43.5 µM
same,GI50,A498 renal,1.78 µM
same,TGI,A498 renal,13.3 µM
same,GI50,ACHN renal,2.86 µM
same,TGI,ACHN renal,30.1 µM
same,GI50,HCC-2998 colon,3.12 µM
same,TGI,HCC-2998 colon,20.2 µM
same,GI50,DU-145 prostate,5.09 µM
same,TGI,DU-145 prostate,17.3 µM
same,GI50,UO-31 renal,4.31 µM
same,TGI,UO-31 renal,36.8 µM
same,GI50,HOP-92 NSCLC,2.21 µM
same,TGI,HOP-92 NSCLC,18.9 µM
same,GI50,HCT-15 colon,4.27 µM
same,TGI,HCT-15 colon,70.1 µM
